This note sets out measurements from article PMC6394990, “Detailed characterization of the solution kinetics and thermodynamics of biotin, biocytin and HABA binding to avidin and streptavidin” (PLoS ONE, 2019).

“And” between values parts separate entries of the source, which are not always exact repeats. Identical values can stand only once. “Also recorded” adds a separate entry of the source.

Data set [1] concerns the target T1, avidin (AV) (Gallus gallus, UniProt P02701).
T1 construct: purchased Calbiochem (La Jolla, CA)
The data set is described as follows: Dissociation (displacement/replacement) of dye-labeled biotin complexes by unlabeled B7. The data set is classed as binding. As to conditions: AB1; probe 20 nM, AV 260 nM; unlabeled B7 2,000 nM; 20°C. How it is done: Biotin dissociation was determined using labelled biotin (BcO and BFl) displaced by unlabeled biotin using minimally occupied and fully occupied binding sites. In the minimally occupied measurements, SAV is prepared with less than one site on average occupied by labelled biotin (AB1), using 800 nM SAV and 40 nM of BcO or BFl. For saturated SAV-labelled biotin (AB4) complexes, equimolar binding sites and labelled ligand were prepared, 40 nM SAV and 40 nM of BcO or BFl. The AB1 complexes were challenged in displacement experiments with several concentrations of unlabeled B7 (1500 nM, 1750 nM, 2000 nM and 2500 nM) at 20 ± 0.1°C. […]
The rss measurements were collected using the Giblin-Parkhurst modification of the Wampler-Desa method as described previously. The fluorescence signal was detected in a model A-1010 Alphascan fluorimeter (Photon Technologies, Inc., Birmingham, NJ) equipped with an R928 PMT (Hamamatsu, Bridgewater, NJ). […] The fluorimeter G factor was determined using a film polarizer and analyzer with an excitation at 488 nm provided by a xenon arc lamp (model A1010, Photon Technologies Inc, Princeton, NJ). The dissociation reactions of dye-labeled B7 and protein complexes were monitored by fluorescence changes and were also collected in the fluorimeter described above. […]

The nature of data set [2]: Intrinsic lifetime, dynamic quantum yield and fraction of non-statically quenched molecules, unbound probe. In kind it is physicochemical. The settings on record: for t° (2), intrinsic lifetime of the fluorescence dye: in ns; for 1-S (4) = QY/F, fraction of non-statically quenched molecules / F (3) = Sat/t° / S: unbound dye.
For data set [3], the target named is T1, avidin (AV). In words: Intrinsic lifetime, dynamic quantum yield and fraction of non-statically quenched molecules, AV complex. In kind it is physicochemical. The settings on record: for Dynamic Quantum Yield Φ / Fraction of Non-Statically Quenched Dye 1-S / Natural Lifetime τ°: AV complex (AB1); for 1-S (4) = QY/F, fraction of non-statically quenched molecules / F (3) = Sat/t° / S / t° (2), intrinsic lifetime of the fluorescence dye: complex with AV; for t° (2), intrinsic lifetime of the fluorescence dye: in ns.

Data set [4] deals with T1, avidin (AV). The data set is described as follows: Steady-state anisotropy (rss), AV complex. The data set is classed as physicochemical. The settings on record: for Steady State Anisotropy rss: AV complex (AB1), 20°C; for AV-increment (%): increase of rss against unbound; for rss, + AV: steady-state anisotropy. The method, then:
(§1) The lifetimes (τ), steady state anisotropies (rss), time-resolved anisotropies (rt) and quantum yields (QY) of the complexes (at 20 ± 0.1°C and pH 8) were collected with a dye-labeled B7 probe concentration of 20–40 nM and 1040–2080 nM of either protein (AV or SAV) to ensure that only one binding site in the tetramer was filled with a ligand (AB1 filling model).
The rss measurements were collected using the Giblin-Parkhurst modification of the Wampler-Desa method as described previously. The fluorescence signal was detected in a model A-1010 Alphascan fluorimeter (Photon Technologies, Inc., Birmingham, NJ) equipped with an R928 PMT (Hamamatsu, Bridgewater, NJ). The excitation was provided by an Ar^+ ion laser (Coherent Innova 70–4 Argon, Santa Clara, CA) at 488 nm and 5–10 mW of power incident on the sample. A photoelastic modulator (PEM-80; HINDS International, Inc., Portland, OR) was placed between the laser source and the sample compartment with a retardation level of 1.22π, and the PEM stress axis orientated 45° with respect to the E vector of the laser beam. Two signals were acquired with the PEM alternating between “on” and “off” positions for 10 seconds and the data fitted to a least squared straight line to minimize noise. A minimum of six of these independent measurements were averaged to acquire the rss values. The fluorimeter G factor was determined using a film polarizer and analyzer with an excitation at 488 nm provided by a xenon arc lamp (model A1010, Photon Technologies Inc, Princeton, NJ). The dissociation reactions of dye-labeled B7 and protein complexes were monitored by fluorescence changes and were also collected in the fluorimeter described above.

For data set [5], the target named is T1, avidin (AV). In words: Time-resolved anisotropy, cone angle, AV complex. In kind it is physicochemical. The settings on record: for Cone Angle Ω: AV complex (AB1), 20°C; for W: complex with AV. How it is done: as §1
The lifetimes were collected in a FluoTime100 fluorescence spectrometer (PicoQuant, GmbH, Berlin, Germany) with the excitation light source provided by a picosecond pulsed diode laser (PicoQuant, GmbH, Berlin, Germany) at 470 nm and 20 MHz. The emission was collected at 520 nm through a non-fluorescing 520 nm interference filter (Oriel Corp., Stratford, CT) followed by a liquid filter of 1cm path length containing 24 mM acetate buffered dichromate at pH 4, between the sample and detector to eliminate traces of excitation light. The fluorescence decays were fit by a nonlinear least-squares minimization based on the Marquardt algorithm embedded in the Fluofit software (PicoQuant GmbH). Twenty-eight decays were collected per sample, the decays were grouped in four sets, consisting of seven sample decays and one Instrument Response Function, IRF, for deconvolution proposes. The decay sets were globally fitted to mono- or bi-exponential decay models that were discriminated using the statistical parameter χ^2. The rt data were acquired with the fluorimeter described above equipped with a polarizer and an analyzer to acquire the parallel VV(t) and perpendicular VH(t) decays. The PicoQuant G factor was calculated according to: G = ∫HV(t)dt/∫HH(t)dt, where HV(t) and HH(t) were the decays collected with the emission polarizer selecting vertical and horizontal E-vector passing orientations, respectively, and the excitation polarizer set at horizontally position.
The r¯t values were calculated according to Eq 11 where the pre-exponential “f” corresponds to the slow phase that derives from the lifetime of the global motion (τG) which was fitted within a range of expected correlation time for the complex size; consequently, facilitating resolution of the fast correlation lifetime (τp) and the corresponding pre-exponential (1-f). r¯(t)=(1−f)∙exp(−t/τp)+f∙exp(−t/τG) (11) The f parameter was constrained to the observed rss (Eq 12) where F^(t) (Eq 13) is normalized (α1 + α2 = 1) and derived from the observed fluorescence decays of the complex. rss=0.4∫r¯(t)∙F^(t)dt (12) Where F^(t)=α1exp(−t/τ1)+α2exp(−t/τ2)/α1τ1+α2τ2 (13)
In a simple model, the transition moment is assumed to wobble within a cone of semi-apical angle Ω [59], where the cone axis is normal to the surface of a sphere that corresponds to the macromolecule. The angle Ω is calculated from Eq 14.

T1 sequence (P02701 25-152): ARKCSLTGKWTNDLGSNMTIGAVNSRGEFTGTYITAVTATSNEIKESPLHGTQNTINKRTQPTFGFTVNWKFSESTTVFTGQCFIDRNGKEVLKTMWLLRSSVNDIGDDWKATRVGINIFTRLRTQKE

Turning to `O=C(CCCC[C@@H]1SC[C@@H]2NC(=O)N[C@@H]21)NCCNC(=O)c1ccc(-c2c3ccc(=O)cc-3oc3cc(O)ccc23)c(C(=O)O)c1` [BFl, Biotin-4-fluorescein], the “koff displacement / koff replacement of AV complexes” value at avidin (AV) [1] is recorded as “could not detect neither displacement nor replacement; also recorded: could not be detected”. In data set [2], the “t° (2), intrinsic lifetime of the fluorescence dye” value (shortened to “t° (2), intrinsic lifetime”) is reported as 5.2 ± 0.2; the “1-S (4) = QY/F, fraction of non-statically quenched molecules” value was 0.65 (2×) and 0.65 ± 0.06; the “F (3) = Sat/t°” value is 0.81 ± 0.04; the S amounted to 0.35. On avidin (AV) [3], the “Dynamic Quantum Yield Φ” value was 0.90 ± 0.02; the “Fraction of Non-Statically Quenched Dye 1-S” value worked out at 0.49 ± 0.03; the “Natural Lifetime τ°” value is recorded as 4.7 ± 0.1; the “1-S (4) = QY/F, fraction of non-statically quenched molecules” value is 0.49 and 0.49 ± 0.03. For the same compound, on avidin (AV) [3], the “F (3) = Sat/t°” value came to 0.90 ± 0.02; the S is listed as 0.51; the “t° (2), intrinsic lifetime” value is given as 4.7 ± 0.1. Besides, at avidin (AV) [4], the “Steady State Anisotropy rss” value was 0.180 ± 0.003; the “AV-increment (%)” value is reported as 757.1%; the “rss, + AV” value was found to be 0.18. For the same compound, on avidin (AV) [5], the “Cone Angle Ω” value amounted to 51 ± 2 degrees and the W is 51.
As to `NC(CCCCNC(=O)CCCC[C@@H]1SC[C@@H]2NC(=O)N[C@@H]21)C(=O)NCCCCCNC(=O)c1ccc(-c2c3cc(F)c(=O)cc-3oc3cc(O)c(F)cc23)c(C(=O)O)c1` (stereo partly shown) [BcO, Oregon green 488 Biocytin], the “koff displacement / koff replacement of AV complexes” value on avidin (AV) [1] is “could not detect neither displacement nor replacement; also recorded: could not be detected”. For the same compound, in data set [2], the “t° (2), intrinsic lifetime” value turned out to be 4.4 ± 0.1; the “1-S (4) = QY/F, fraction of non-statically quenched molecules” value is 1 and 1.00 ± 0.02; the “F (3) = Sat/t°” value is given as 0.85 ± 0.02; the S amounted to 0. Further, at avidin (AV) [3], the “Dynamic Quantum Yield Φ” value stood at 0.88 ± 0.02; the “Fraction of Non-Statically Quenched Dye 1-S” value came out at 0.70 ± 0.03; the “Natural Lifetime τ°” value came out at 4.9 ± 0.1; the “1-S (4) = QY/F, fraction of non-statically quenched molecules” value was 0.7 and 0.70 ± 0.03. Moreover, at avidin (AV) [3], the “F (3) = Sat/t°” value is on record as 0.88 ± 0.02; the S is on record as 0.3; the “t° (2), intrinsic lifetime” value was determined as 4.9 ± 0.1. On avidin (AV) [4], the “Steady State Anisotropy rss” value came out at 0.187 ± 0.009; the “AV-increment (%)” value came to 713.0%; the “rss, + AV” value stood at 0.187. Also, on avidin (AV) [5], the “Cone Angle Ω” value was determined as 50 ± 2 degrees and the W is recorded as 50.
